Publication PMC5362913, “A new class of inhibitors of the AraC family virulence regulator Vibrio cholerae ToxT” (Scientific Reports, 2017)

Key:
tcpA-lacZ = assay: β-galactosidase reporter assay of tcpA-lacZ transcriptional fusion; type: cell-based, Vibrio cholerae; conditions: 5 μM and 0.5 μM
[1] = test system: V. cholerae classical strain O395; assay: Autoagglutination assay of O395 cultures; type: cell-based, Vibrio cholerae
ToxT [2] = biological target: T1, ToxT (Vibrio cholerae serotype O1, UniProt A5F384); type: biochemical; conditions: for inhibition of ToxT DNA-binding in dose-response EMSA, compared with virstatin: compounds 10, 1, 0.1 μM, virstatin 100, 10, 1, 0.1 μM
T1 construct: made in house; host or cells: E. coli BL21-CodonPlus (DE3)-RIL
T1 sequence (A5F384 1-276): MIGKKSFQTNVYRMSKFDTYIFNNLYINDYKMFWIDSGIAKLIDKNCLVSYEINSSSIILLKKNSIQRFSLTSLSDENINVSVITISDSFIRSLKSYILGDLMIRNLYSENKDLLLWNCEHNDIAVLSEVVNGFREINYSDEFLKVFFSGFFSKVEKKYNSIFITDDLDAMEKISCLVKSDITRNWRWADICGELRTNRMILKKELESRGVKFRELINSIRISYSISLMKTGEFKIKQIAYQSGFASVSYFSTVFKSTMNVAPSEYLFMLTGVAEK

ToxT [3] = biological target: T1, ToxT; assay: Competition STD NMR with virstatin as indicator; type: binding; conditions: 20 μM ToxT, 100 μM virstatin; based on KD of virstatin and decrease in STD signal; read-out: calculated Ki
Method: (§1) Virstatin was solubilized in DMSO-d6 and compounds 5a and 3b in DMSO, at working stock concentrations of 35.5 mM, 394 mM, and 50.5 mM, respectively. Purified ToxT in protein buffer (20 mM Tris, 1 mM EDTA, 320 mM NaCl, pH 7.5) was used at a final concentration of 20 μM. All samples contained 50 μM 3-(Trimethylsilyl)-1-propanesulfonic acid sodium salt (TSP) as an internal standard and 5% D2O. All NMR experiments were carried out on a Bruker Avance 600 MHz or 700 MHz spectrometer equipped with a TCI cryogenic probe. Samples were stored at 4 °C prior to acquisition.
Virstatin was used as the STD indicator at a concentration of 100 μM. Compounds 5a and 3b were added at concentrations of 20–200 μM. STD spectra were obtained as above, with a saturation time of 3 seconds. The calculation of the competitive inhibition was as follows[60]:
where CI is the concentration of inhibitor with unknown KD (compound 5a or 3b), CL is the concentration of ligand with known KD (virstatin), KD is that of virstatin, and i is the inhibition expressed as a fraction: [drawing 6] .

ToxT [4] = biological target: T1, ToxT; assay: STD NMR determination of KD; type: binding
Method: as §1
KD determination followed the protocol outlined by Angulo et al.[57]. For on-resonance spectra, the protein was saturated at 500 Hz or 583.33 Hz for the 600 MHz and 700 MHz NMR spectrometers, respectively, for 1–4 seconds utilizing a train of 50 ms Gaussian pulses. For off-resonance spectra, the sample was irradiated at −2000 Hz. The total relaxation delay was 7 seconds. Data acquisition consisted of 128 scans and 32,768 points. The STD-effect was calculated by measuring the intensity of the virstatin aromatic proton peaks in the on- and off-resonance spectra:
The KD of virstatin was calculated using Michaelis-Menten kinetics. The STD-AF0 was plotted as a function of the ligand concentration to construct the binding (Langmuir) isotherm: […]

Structure (SMILES)	inhibition of ToxT DNA-binding in dose-response EMSA, compared with virstatin (ToxT [2])	autoagglutination of O395 cultures ([1]; 50 nM)	autoagglutination of O395 cultures ([1]; 0.5 μM)	also measured
CCCCCCCC/C=C\CCCCCCCC(=O)O [oleic acid, reference compound]				inhibition of tcpA transcription (relative β-galactosidase activity of tcpA-lacZ) (tcpA-lacZ): essentially no effect; autoagglutination of O395 cultures ([1]; 0.5 μM and 0.05 μM): no effect
CCCCCC/C=C\CCCCCCCC(=O)O [cis-palmitoleic acid, reference compound]				inhibition of tcpA transcription (relative β-galactosidase activity of tcpA-lacZ) (tcpA-lacZ): essentially no effect; autoagglutination of O395 cultures ([1]; 0.5 μM and 0.05 μM): no effect
Cc1cccc2cccc(CCCC(=O)O)c12 [4b]	inhibited DNA-binding more strongly than virstatin	inhibited	completely abolished detectable autoagglutination	
Cc1cccc2cccc(CCC(=O)O)c12 [4a]	inhibited DNA-binding more strongly than virstatin	inhibited	completely abolished detectable autoagglutination	
Cc1cccc2c1C(CCC(=O)O)CCC2 (stereo not shown) [5a]	inhibited DNA-binding more strongly than virstatin	inhibited	completely abolished detectable autoagglutination	Ki (ToxT [3]): 31 µM
O=C(O)CCCN1C(=O)c2cccc3cccc(c23)C1=O [virstatin, reference compound]			did not	Kd (ToxT [4]; from STD spectra of aromatic protons Ha,b): 483 ± 109 µM; Kd (ToxT [4]; from STD spectra of aromatic protons He,f): 331 ± 65 µM; ToxT binding to tcpA promoter DNA (EMSA) (ToxT [2]; 100 μM compound, 0.78 μM ToxT): prevented ToxT from binding DNA
Cc1cccc2cccc(/C=C/CC(=O)O)c12 [3b]	inhibited DNA-binding more strongly than virstatin	inhibited	completely abolished detectable autoagglutination	Ki (ToxT [3]): 10 µM
